Reference: ChEMBL document CHEMBL5058646 (2022)

Legend:
[1] = target: Serine/threonine-protein kinase MRCK alpha (Homo sapiens) (UniProt Q5VT25); experiment: CDC42BPA SGC Tm panel (DSF); settings: Compound concentration 20.0 uM
[2] = target: B-cell lymphoma 6 protein (Homo sapiens, UniProt P41182); settings: SUD4, Compound concentration 1.0 uM
[3] = target: T1, Telomere zinc finger-associated protein (Homo sapiens) (UniProt P10074); settings: SUD4, Compound concentration 1.0 uM
T1 sequence (whole entry): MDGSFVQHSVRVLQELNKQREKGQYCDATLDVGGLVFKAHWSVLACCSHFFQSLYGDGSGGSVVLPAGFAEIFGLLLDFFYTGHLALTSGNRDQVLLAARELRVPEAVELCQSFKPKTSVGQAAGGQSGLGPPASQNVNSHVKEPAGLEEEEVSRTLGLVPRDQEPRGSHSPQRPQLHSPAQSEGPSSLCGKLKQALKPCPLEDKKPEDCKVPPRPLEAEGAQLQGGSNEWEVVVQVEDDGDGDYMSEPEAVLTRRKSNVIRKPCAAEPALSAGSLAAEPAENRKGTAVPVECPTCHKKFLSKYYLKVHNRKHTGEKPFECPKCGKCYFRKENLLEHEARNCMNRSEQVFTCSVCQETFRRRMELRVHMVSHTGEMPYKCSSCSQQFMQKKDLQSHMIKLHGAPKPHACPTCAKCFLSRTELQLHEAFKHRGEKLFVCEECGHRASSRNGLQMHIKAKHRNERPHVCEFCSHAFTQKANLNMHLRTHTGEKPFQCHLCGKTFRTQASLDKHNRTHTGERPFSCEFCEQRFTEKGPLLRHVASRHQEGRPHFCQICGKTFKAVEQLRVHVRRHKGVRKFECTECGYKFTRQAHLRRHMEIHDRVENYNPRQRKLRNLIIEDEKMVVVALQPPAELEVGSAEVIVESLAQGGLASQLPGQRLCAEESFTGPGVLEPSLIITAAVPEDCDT

[4] = target: 5-hydroxytryptamine receptor 1B (Homo sapiens) (UniProt P28222); settings: Compound concentration 10.0 uM
[5] = target: D(2) dopamine receptor (Homo sapiens) (UniProt P14416); settings: Compound concentration 10.0 uM
Chain of D(2) dopamine receptor (Homo sapiens) (P14416 whole entry): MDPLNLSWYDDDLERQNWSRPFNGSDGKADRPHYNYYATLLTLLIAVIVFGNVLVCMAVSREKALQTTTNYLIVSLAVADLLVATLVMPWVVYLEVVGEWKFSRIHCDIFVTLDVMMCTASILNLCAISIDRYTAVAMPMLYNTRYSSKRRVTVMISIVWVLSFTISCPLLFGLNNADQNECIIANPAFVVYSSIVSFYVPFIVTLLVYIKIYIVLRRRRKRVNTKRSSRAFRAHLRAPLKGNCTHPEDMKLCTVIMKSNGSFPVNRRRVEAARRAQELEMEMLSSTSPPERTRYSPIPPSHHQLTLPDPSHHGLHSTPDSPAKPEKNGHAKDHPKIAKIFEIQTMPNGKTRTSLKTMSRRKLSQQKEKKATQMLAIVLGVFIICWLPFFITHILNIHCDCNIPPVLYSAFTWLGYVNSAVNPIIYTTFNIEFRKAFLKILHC

[6] = target: Serine/threonine-protein kinase PAK 4 (Homo sapiens) (UniProt O96013); experiment: PAK4 SGC Tm panel (DSF); settings: Compound concentration 20.0 uM
Chain of Serine/threonine-protein kinase PAK 4 (Homo sapiens) (O96013 whole entry, looked up): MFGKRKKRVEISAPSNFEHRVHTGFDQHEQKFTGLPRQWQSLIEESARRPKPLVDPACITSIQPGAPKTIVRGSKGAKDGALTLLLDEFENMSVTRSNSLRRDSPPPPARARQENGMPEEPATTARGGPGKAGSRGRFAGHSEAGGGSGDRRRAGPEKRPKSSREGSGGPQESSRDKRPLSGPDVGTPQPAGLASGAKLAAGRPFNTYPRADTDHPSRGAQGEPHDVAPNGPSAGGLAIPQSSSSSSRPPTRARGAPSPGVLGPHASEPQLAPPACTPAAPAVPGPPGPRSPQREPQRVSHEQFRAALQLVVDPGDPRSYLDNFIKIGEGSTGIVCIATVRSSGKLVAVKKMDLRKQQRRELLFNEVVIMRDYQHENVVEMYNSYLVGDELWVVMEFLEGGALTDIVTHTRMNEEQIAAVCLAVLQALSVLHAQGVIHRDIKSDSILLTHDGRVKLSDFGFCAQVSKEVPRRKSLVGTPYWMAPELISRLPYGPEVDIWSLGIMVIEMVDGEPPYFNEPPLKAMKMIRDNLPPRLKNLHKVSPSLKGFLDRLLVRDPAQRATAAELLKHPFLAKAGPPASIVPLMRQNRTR

[7] = target: Serine/threonine-protein kinase WNK1 (Homo sapiens) (UniProt Q9H4A3); experiment: WNK1 SGC Tm panel (DSF); settings: Compound concentration 20.0 uM
[8] = target: Serine/threonine-protein kinase 24 (Homo sapiens) (UniProt Q9Y6E0); experiment: STK24 SGC Tm panel (DSF); settings: Compound concentration 20.0 uM
Chain of Serine/threonine-protein kinase 24 (Homo sapiens) (Q9Y6E0 whole entry, looked up): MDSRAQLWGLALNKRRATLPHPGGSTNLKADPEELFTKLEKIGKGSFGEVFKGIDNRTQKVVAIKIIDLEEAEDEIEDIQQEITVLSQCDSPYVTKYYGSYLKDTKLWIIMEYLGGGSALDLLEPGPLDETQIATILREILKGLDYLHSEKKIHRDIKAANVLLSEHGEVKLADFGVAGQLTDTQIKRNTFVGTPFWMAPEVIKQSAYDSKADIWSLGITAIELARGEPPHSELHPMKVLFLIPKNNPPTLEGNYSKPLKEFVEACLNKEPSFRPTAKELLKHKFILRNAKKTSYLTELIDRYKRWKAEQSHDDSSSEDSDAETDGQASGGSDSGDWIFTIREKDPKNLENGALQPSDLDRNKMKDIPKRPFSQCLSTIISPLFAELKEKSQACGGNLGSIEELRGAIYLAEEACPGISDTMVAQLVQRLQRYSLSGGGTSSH

[9] = target: Ephrin type-B receptor 3 (Homo sapiens) (UniProt P54753); experiment: EPHB3 SGC Tm panel (DSF); settings: Compound concentration 20.0 uM
[10] = target: Serine/threonine-protein kinase 4 (Homo sapiens) (UniProt Q13043); experiment: STK4 SGC Tm panel (DSF); settings: Compound concentration 20.0 uM
Chain of Serine/threonine-protein kinase 4 (Homo sapiens) (Q13043 whole entry, the tested form may be a part): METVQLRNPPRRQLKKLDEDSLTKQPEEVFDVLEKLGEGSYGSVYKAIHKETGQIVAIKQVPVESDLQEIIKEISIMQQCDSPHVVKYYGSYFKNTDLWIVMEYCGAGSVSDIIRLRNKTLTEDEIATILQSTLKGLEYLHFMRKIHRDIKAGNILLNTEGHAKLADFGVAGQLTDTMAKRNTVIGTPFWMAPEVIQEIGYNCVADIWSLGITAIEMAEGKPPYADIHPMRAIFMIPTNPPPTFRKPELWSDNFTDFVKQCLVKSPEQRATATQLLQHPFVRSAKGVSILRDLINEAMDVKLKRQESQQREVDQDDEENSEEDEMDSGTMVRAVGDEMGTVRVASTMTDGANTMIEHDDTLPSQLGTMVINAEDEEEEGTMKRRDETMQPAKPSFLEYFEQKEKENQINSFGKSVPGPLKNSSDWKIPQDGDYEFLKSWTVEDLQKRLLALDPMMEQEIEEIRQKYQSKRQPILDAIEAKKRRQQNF

[11] = target: T2, Zinc finger and BTB domain-containing protein 44 (Homo sapiens) (UniProt Q8NCP5); settings: SUD4, Compound concentration 1.0 uM
T2 sequence (whole entry): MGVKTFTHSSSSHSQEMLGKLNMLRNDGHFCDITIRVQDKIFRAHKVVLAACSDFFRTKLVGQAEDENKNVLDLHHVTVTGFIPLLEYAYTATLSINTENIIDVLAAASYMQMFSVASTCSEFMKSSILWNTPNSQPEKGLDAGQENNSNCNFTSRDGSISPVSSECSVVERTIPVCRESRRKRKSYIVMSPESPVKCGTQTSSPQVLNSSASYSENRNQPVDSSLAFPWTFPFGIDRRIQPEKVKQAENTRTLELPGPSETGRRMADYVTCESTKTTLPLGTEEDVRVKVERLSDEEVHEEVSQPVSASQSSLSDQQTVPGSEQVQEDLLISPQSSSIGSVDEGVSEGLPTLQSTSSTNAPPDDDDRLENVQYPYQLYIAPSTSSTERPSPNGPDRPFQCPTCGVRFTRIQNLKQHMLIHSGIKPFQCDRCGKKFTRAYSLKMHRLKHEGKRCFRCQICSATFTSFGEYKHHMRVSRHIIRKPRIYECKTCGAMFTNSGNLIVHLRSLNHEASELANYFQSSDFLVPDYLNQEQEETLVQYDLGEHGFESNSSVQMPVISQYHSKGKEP

[12] = target: T3, Sodium-dependent dopamine transporter (Homo sapiens, UniProt Q01959); experiment: GPCRScan assay: inhibition of DAT; parameters: radioligand conc. used [nm] 3.6 – 16.0, parental cells stable HEK
T3 sequence (Q01959 whole entry): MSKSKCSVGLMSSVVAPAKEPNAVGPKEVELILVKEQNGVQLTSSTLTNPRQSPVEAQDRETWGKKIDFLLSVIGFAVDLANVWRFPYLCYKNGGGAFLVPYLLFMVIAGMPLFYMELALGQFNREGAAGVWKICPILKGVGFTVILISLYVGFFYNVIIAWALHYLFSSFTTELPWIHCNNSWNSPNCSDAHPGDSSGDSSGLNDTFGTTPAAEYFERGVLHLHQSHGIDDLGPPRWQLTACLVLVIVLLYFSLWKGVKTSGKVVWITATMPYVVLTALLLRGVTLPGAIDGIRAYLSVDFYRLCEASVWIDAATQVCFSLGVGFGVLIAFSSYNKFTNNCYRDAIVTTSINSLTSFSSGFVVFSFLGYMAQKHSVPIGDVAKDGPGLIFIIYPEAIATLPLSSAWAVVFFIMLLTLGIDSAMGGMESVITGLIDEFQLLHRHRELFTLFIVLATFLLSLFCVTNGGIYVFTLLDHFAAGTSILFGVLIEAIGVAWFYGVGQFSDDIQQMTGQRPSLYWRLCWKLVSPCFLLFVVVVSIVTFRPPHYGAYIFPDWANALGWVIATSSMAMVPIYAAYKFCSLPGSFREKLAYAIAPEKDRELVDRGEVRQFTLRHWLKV

[13] = target: Alpha-1D adrenergic receptor (Homo sapiens) (UniProt P25100); settings: Compound concentration 10.0 uM
Chain of Alpha-1D adrenergic receptor (Homo sapiens) (P25100 whole entry): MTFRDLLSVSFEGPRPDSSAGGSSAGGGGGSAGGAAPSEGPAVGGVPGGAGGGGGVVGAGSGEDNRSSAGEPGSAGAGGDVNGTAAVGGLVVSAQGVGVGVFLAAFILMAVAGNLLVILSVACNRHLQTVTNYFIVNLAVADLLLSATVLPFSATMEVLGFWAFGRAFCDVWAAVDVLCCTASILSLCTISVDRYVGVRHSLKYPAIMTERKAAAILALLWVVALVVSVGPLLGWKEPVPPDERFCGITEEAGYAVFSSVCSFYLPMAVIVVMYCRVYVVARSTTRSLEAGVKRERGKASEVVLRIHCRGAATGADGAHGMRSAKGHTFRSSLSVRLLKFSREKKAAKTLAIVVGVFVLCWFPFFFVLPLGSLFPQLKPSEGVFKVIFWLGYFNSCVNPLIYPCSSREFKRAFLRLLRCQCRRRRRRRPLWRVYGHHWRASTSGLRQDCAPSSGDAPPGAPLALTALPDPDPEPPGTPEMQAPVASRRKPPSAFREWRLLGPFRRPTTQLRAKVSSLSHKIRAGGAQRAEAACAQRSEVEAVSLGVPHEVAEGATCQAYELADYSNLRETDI

[14] = target: 5-hydroxytryptamine receptor 2A (Homo sapiens) (UniProt P28223); settings: Compound concentration 10.0 uM
Chain of 5-hydroxytryptamine receptor 2A (Homo sapiens) (P28223 whole entry): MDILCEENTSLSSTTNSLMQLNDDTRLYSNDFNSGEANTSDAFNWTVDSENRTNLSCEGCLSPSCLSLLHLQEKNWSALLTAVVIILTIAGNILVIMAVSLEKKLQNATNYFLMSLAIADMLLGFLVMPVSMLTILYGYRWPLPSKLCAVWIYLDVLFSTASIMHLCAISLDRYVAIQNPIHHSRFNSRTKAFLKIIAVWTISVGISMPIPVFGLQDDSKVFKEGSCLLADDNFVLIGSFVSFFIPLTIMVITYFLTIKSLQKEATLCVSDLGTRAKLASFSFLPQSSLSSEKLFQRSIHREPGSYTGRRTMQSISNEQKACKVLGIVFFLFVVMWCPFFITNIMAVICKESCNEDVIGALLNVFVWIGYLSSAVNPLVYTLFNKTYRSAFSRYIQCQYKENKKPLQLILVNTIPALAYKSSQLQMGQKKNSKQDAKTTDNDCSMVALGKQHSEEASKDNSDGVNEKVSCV

[15] = target: T3, Sodium-dependent dopamine transporter; settings: Compound concentration 10.0 uM
[16] = target: Serine/threonine-protein kinase pim-1 (Homo sapiens) (UniProt P11309); experiment: PIM1 SGC Tm panel (DSF); settings: Compound concentration 20.0 uM
Chain of Serine/threonine-protein kinase pim-1 (Homo sapiens) (P11309 whole entry, looked up): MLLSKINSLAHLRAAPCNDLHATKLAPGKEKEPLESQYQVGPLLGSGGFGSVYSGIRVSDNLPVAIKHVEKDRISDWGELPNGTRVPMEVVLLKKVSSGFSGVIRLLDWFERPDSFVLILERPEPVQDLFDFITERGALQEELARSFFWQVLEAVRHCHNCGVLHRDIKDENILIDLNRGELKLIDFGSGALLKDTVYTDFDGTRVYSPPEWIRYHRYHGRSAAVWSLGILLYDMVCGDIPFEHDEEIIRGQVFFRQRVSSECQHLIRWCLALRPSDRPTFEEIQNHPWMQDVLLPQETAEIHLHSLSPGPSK

[17] = target: Transcription intermediary factor 1-alpha (Homo sapiens) (UniProt O15164); experiment: TIF1 SGC Tm panel (DSF); settings: Compound concentration 20.0 uM
Chain of Transcription intermediary factor 1-alpha (Homo sapiens) (O15164 whole entry, the tested form may be a part): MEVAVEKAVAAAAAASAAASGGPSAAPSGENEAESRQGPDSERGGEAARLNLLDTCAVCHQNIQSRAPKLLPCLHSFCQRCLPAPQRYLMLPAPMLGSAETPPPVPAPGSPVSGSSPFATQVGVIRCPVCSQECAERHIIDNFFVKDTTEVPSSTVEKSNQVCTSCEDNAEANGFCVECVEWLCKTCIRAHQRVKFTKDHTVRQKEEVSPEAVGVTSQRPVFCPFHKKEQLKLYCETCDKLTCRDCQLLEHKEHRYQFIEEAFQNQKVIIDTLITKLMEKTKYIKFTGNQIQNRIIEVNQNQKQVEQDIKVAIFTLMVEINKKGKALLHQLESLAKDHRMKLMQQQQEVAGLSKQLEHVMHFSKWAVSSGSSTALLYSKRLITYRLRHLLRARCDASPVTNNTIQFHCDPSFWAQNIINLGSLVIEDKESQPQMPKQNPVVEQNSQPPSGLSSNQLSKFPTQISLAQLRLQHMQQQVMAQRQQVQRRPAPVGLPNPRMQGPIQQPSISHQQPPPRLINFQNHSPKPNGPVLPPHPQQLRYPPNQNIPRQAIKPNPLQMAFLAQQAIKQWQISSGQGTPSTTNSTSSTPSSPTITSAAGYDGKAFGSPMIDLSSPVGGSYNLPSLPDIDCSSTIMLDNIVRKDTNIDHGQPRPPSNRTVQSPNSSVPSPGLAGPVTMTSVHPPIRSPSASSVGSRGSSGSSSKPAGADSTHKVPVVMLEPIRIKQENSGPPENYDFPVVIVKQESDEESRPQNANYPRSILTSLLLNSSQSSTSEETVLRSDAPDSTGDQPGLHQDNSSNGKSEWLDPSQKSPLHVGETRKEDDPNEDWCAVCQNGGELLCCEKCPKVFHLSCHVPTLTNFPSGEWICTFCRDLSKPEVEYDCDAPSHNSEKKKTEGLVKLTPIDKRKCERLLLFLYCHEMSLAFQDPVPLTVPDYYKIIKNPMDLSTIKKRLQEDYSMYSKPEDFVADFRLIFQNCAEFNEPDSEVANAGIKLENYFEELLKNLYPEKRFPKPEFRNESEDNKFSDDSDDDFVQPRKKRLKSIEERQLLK

[18] = target: T4, Zinc finger and BTB domain-containing protein 24 (Homo sapiens) (UniProt O43167); settings: SUD4, Compound concentration 1.0 uM
T4 sequence (whole entry): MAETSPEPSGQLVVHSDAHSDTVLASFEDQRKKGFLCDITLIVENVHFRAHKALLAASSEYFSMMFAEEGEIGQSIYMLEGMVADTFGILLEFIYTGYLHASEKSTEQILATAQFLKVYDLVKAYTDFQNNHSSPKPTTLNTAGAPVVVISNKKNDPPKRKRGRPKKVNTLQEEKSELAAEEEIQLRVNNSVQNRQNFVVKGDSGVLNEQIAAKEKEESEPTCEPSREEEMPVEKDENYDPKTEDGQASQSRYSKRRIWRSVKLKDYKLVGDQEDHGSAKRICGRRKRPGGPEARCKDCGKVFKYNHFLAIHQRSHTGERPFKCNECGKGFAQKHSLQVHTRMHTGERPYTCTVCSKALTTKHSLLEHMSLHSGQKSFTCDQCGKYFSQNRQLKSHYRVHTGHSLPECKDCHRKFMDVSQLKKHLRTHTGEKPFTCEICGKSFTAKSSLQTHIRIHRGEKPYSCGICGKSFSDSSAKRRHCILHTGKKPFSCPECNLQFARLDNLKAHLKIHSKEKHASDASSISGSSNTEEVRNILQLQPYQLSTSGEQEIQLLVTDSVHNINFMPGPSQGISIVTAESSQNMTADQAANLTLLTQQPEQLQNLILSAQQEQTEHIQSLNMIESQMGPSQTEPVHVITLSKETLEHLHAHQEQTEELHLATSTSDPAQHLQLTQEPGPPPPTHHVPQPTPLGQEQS

C[C@@H]1CN(c2ncc(Cl)c(Nc3ccc4c(c3)n(CCC(C)(C)O)c(=O)n4C)n2)C[C@H](C)C1(F)F
Tm [1]: 43 °C | LogFC [2]: -1.2 | LogFC [3]: -0.0152 | inhibition [4]: 3.38% | inhibition [5]: 20.8% | Tm [6]: 46 °C | Tm [7]: 51 °C | Tm [8]: 36 °C | Tm [9]: 52 °C | Tm [10]: 46 °C | LogFC [11]: -0.00843 | Ki ([12]; read-out: Ki): 5.09 µM | Ki ([12]; read-out: pKi (converted)): 4.9 µM | inhibition [13]: 16% | inhibition [14]: 23.6% | inhibition [15]: 50.8% | Tm [16]: 41 °C | Tm [17]: 36 °C | LogFC [18]: 0.00149
